The text below walks through data of patent US8840904B2, “Compositions and methods for vaccinating against HSV-2” (priority 2006, dated 2014).

The target in one test is recombinant HLA B*0702 (Homo sapiens, UniProt P01889). Kind of test: biochemical. The format is binding.
The subject of test [1] is CD8^+ T-cells specific for the “majority”. Put plainly: Cross-reactivity of CD8+ T-cells with UL49 AA 49-57 variants. The format is cell-based, human.

No end group written: not given here.

In general, IC50 refers to the concentration that inhibits the measured activity by half. As to RPRGEVREFL, on recombinant HLA B*0702, the IC50 is less than 2 nM. With RPRGKVRFL, the “cross-reactivity of majority-specific CD8^+ T-cells” value in test [1] was “not cross-reactive”.
